# Assay results as given in patent US20070275984A1, “Novel Thieno-Pyridine and Thieno-Pyrimidine Derivatives and Their Use as Positive Allosteric Modulators of Mglur2-Receptors” (JANSSEN PHARMACEUTICA N.V., priority 2004, published 2007).
row,SMILES,melting point
1,CCc1cc2c(NC(C)c3ccccc3)ncnc2s1 (stereo not drawn),141 °C
2,"Cc1nc(NCCc2ccccc2)c2ccsc2n1 [Compound 1, 2-methyl-N-phenethylthieno[2,3-d]pyrimidin-4-amine]",111 °C
3,"CCc1nc(NCCc2ccccc2)c2ccsc2n1 [Compound 2, 2-ethyl-N-phenethylthieno[2,3-d]pyrimidin-4-amine]",89 °C
4,"Cc1nc(N2CCc3ccccc3C2)c2cc(C)sc2n1 [Compound 4, 2-(2,6-dimethylthieno[2,3-d]pyrimidin-4-yl)-1,2,3,4-tetrahydroisoquinoline]",105 °C
5,"COc1cccc(CNc2nc(C)nc3sc(C)cc23)c1 [Compound 6, N-(3-methoxybenzyl)-2,6-dimethylthieno[2,3-d]pyrimidin-4-amine]",97 °C
6,"CCc1nc(NCc2cccc(OC)c2)c2cc(C)sc2n1 [Compound 7, N-(3-methoxybenzyl)-2-ethyl-6-methylthieno[2,3-d]pyrimidin-4-amine]",108.4 °C
7,"COc1ccc(CNc2nc(C)nc3sc(C)cc23)cc1 [Compound 8, N-(4-methoxybenzyl)-2,6-dimethylthieno[2,3-d]pyrimidin-4-amine]",127.5 °C
8,"COc1ccc(CNc2nc(C)nc3sc(C)cc23)cc1OC [Compound 9, N-(3,4-dimethoxybenzyl)-2,6-dimethylthieno[2,3-d]pyrimidin-4-amine]",142 °C
9,"Cc1nc(NCc2cccc(Cl)c2)c2cc(C)sc2n1 [Compound 10, N-(3-chlorobenzyl)-2,6-dimethylthieno[2,3-d]pyrimidin-4-amine]",136.5 °C
10,"Cc1nc(NCC(=O)c2ccccc2)c2cc(C)sc2n1 [Compound 12, 2-(2,6-dimethylthieno[2,3-d]pyrimidin-4-ylamino)-1-phenylethanone]",159 °C
11,"Cc1nc(NCCc2ccccc2)c2cc(C)sc2n1 [Compound 13, 2,6-dimethyl-N-phenethylthieno[2,3-d]pyrimidin-4-amine]",106 °C
12,"Cc1cc2c(NCCc3ccccc3)nc(Cl)nc2s1 [Compound 14, 2-chloro-6-methyl-N-phenethylthieno[2,3-d]pyrimidin-4-amine]",119 °C
13,"Cc1cc2c(NCCc3ccccc3)nc(N(C)C)nc2s1 [Compound 16, N2,N2,6-trimethyl-N4-phenethylthieno[2,3-d]pyrimidine-2,4-diamine]",142 °C
14,"Cc1ccc(CCNc2nc(C)nc3sc(C)cc23)cc1 [Compound 19, N-(4-methylphenethyl)-2,6-dimethylthieno[2,3-d]pyrimidin-4-amine]",115 °C
15,"CCc1ccc(CCNc2nc(C)nc3sc(C)cc23)cc1 [Compound 20, N-(4-ethylphenethyl)-2,6-dimethylthieno[2,3-d]pyrimidin-4-amine]",62 °C
16,"Cc1nc(NCCc2cccc(C(F)(F)F)c2)c2cc(C)sc2n1 [Compound 21, N-(3-(trifluoromethyl)phenethyl)-2,6-dimethylthieno[2,3-d]pyrimidin-4-amine]",98.2 °C
17,"Cc1nc(NCCc2cccc(O)c2)c2cc(C)sc2n1 [Compound 22, N-(3-hydroxyphenethyl)-2,6-dimethylthieno[2,3-d]pyrimidin-4-amine]",162.5 °C
18,"Cc1nc(NCCc2ccc(O)cc2)c2cc(C)sc2n1 [Compound 23, 4-(2-(2,6-dimethylthieno[2,3-d]pyrimidin-4-ylamino)ethyl)phenol]",166 °C

row,SMILES,melting point
1,"COc1ccccc1CCNc1nc(C)nc2sc(C)cc12 [Compound 24, N-(2-methoxyphenethyl)-2,6-dimethylthieno[2,3-d]pyrimidin-4-amine]",134 °C
2,"COc1cccc(CCNc2nc(C)nc3sc(C)cc23)c1 [Compound 25, N-(3-methoxyphenethyl)-2,6-dimethylthieno[2,3-d]pyrimidin-4-amine]",139 °C
3,"CCc1nc(NCCc2cccc(OC)c2)c2cc(C)sc2n1 [Compound 26, N-(3-methoxyphenethyl)-2-ethyl-6-methylthieno[2,3-d]pyrimidin-4-amine]",83.5 °C
4,"COc1ccc(CCNc2ncnc3sc(C)cc23)cc1 [Compound 27, N-(4-methoxyphenethyl)-6-methylthieno[2,3-d]pyrimidin-4-amine]",199 °C
5,"CCc1nc(NCCc2ccc(OC)cc2)c2cc(C)sc2n1 [Compound 29, N-(4-methoxyphenethyl)-2-ethyl-6-methylthieno[2,3-d]pyrimidin-4-amine]",82 °C
6,"CCOc1ccc(CCNc2nc(C)nc3sc(C)cc23)cc1 [Compound 30, N-(4-ethoxyphenethyl)-2,6-dimethylthieno[2,3-d]pyrimidin-4-amine]",101 to 103 °C
7,"COc1cc(CCNc2nc(C)nc3sc(C)cc23)ccc1O [Compound 31, 4-(2-(2,6-dimethylthieno[2,3-d]pyrimidin-4-ylamino)ethyl)-2-methoxyphenol]",135 °C
8,"COc1ccc(CCNc2nc(C)nc3sc(C)cc23)cc1OC [Compound 33, N-(3,4-dimethoxyphenethyl)-2,6-dimethylthieno[2,3-d]pyrimidin-4-amine]",85 °C
9,"CCc1nc(NCCc2ccc(OC)c(OC)c2)c2cc(C)sc2n1 [Compound 34, N-(3,4-dimethoxyphenethyl)-2-ethyl-6-methylthieno[2,3-d]pyrimidin-4-amine]",105 °C
10,"COc1cc(CCNc2nc(C)nc3sc(C)cc23)cc(OC)c1 [Compound 35, N-(3,5-dimethoxyphenethyl)-2,6-dimethylthieno[2,3-d]pyrimidin-4-amine]",106 to 107 °C
11,"Cc1nc(NCCc2ccc(Cl)cc2)c2cc(C)sc2n1 [Compound 38, N-(4-chlorophenethyl)-2,6-dimethylthieno[2,3-d]pyrimidin-4-amine]",129 °C
12,"Cc1nc(NCCc2ccc(F)cc2)c2cc(C)sc2n1 [Compound 41, N-(4-fluorophenethyl)-2,6-dimethylthieno[2,3-d]pyrimidin-4-amine]",117.2 °C
13,"Cc1nc(NCCc2ccc(S(C)(=O)=O)cc2)c2cc(C)sc2n1 [Compound 44, N-(4-(methylsulfonyl)phenethyl)-2,6-dimethylthieno[2,3-d]pyrimidin-4-amine]",176 to 179.5 °C
14,"Cc1nc(NCCOc2ccccc2)c2cc(C)sc2n1 [Compound 47, 2,6-dimethyl-N-(2-phenoxyethyl)thieno[2,3-d]pyrimidin-4-amine]",156.5 °C
15,"Cc1nc(NCCc2ccccn2)c2cc(C)sc2n1 [Compound 48, 2,6-dimethyl-N-(2-(pyridin-2-yl)ethyl)thieno[2,3-d]pyrimidin-4-amine]",139 °C
16,"Cc1nc(NCCc2cccs2)c2cc(C)sc2n1 [Compound 50, 2,6-dimethyl-N-(2-(thiophen-2-yl)ethyl)thieno[2,3-d]pyrimidin-4-amine]",102.5 to 103.7 °C
17,"COc1ccc(CCN(C)c2nc(C)nc3sc(C)cc23)cc1 [Compound 51, N-(4-methoxyphenethyl)-N,2,6-trimethylthieno[2,3-d]pyrimidin-4-amine]",81 °C
18,"Cc1nc(NCC(C)c2ccccc2)c2cc(C)sc2n1 (stereo not drawn) [Compound 52, 2,6-dimethyl-N-(2-phenylpropyl)thieno[2,3-d]pyrimidin-4-amine]",94 °C
